The target of one data set is T1, NaV1.8 (Homo sapiens, UniProt Q9Y5Y9).
T1 construct: expressed in transfected cells
Put plainly: Whole-cell patch-clamp, blocking activity on NaV1.8 channel current (CHO cell line stably expressing NaV1.8). It is filed as cell-based. The settings on record: statement in words. The procedure: • 1. Test method: the patch-clamp technique was used to detect the effects of compound on the voltage-gated sodium channels (NaV) 1.1 to 1.8 subtype currents
• 1) the specific information of CHO cell line stably expressing NaV1.8 channel was as follows: SCN10A: NM_006514 • 2) Cells were cultured in HAM'S/F-12 medium containing 10% fetal bovine serum, 10 μg/mL Blasticidin, 200 μg/mL Hygromycin B and 100 μg/mL Zeocin at 37° C. and 5% carbon dioxide concentration. • 3) Cell passage: the old medium was removed and washed once with PBS, and then 1 mL of 0.25%-Trypsin-EDTA solution was added and incubated at 37° C. for 1.5 minutes. When the cells were detached from the bottom of the plate, 5 mL of 37° C. prewarmed complete medium was added. […]
Double-pulse mode was performed by two 0 mV depolarization test pulses (TP1 and TP2) for 50 ms. […] Data acquisition was repeated at 20 s intervals and the current peaks at two test pulses were measured.
While the NaV channel current recorded in the whole cell was stable, the drug was administered, and each drug concentration was applied for 5 minutes (or the current is stabilized) and then the next concentration was detected; each test compound was detected at multiple concentrations. […] The current detected by each cell in the external fluid without the compounds was used as its own control group. Multiple cells were detected independently and repeatedly. […]

A short description of data set [1]: Pharmacokinetics in rats, single intravenous injection or intragastric administration. It is filed as in vivo, male Sprague Dawley rats. How it is done: In this experimental embodiment, in vivo pharmacokinetic evaluation was evaluated in rats by single intravenous injection or intragastric oral administration.
Experimental methods and conditions: male Sprague Dawley rats; all animals were fasted overnight, and were given a single dose of the compound to be tested at 1 mg/kg (intravenous injection, solvent 5% DMSO/10% Solutol/85% Saline) and 10 mg/kg (intragastric administration) respectively, at 5 min, 15 min, 30 min, 1 hr, 2 hr, 4 hr, 6 hr, 8 hr and 24 h after drug administration, blood was collected from the submandibular vein, about 0.20 mL per sample was collected, heparin sodium was used for anticoagulation, and then it was placed on ice after collection and centrifuged within 1 hour to separate the plasma for testing. The concentration of the drug in the plasma was measured by liquid tandem mass spectrometry (LC/MS/MS), and the measured concentration was used to calculate pharmacokinetic parameters.

Data set [2] can be described thus: Solid-state stability experiment (XRPD, HPLC). The class given is physicochemical. The settings on record: for Crystal form variation: XRPD. How it is done:
The stability test in the high-performance liquid chromatography (IPLC) test used in the present disclosure is tested by an Agilent 1260 high-performance liquid chromatograph, and the analytical conditions are shown in Table 11.
In order to evaluate the solid stability of the free anhydrous crystal form B, an appropriate amount of the sample was respectively weighed, placed at 60° C. for 24 hours, and exposed at 25° C./60% RH and 40° C./75[…] for one week. The crystal changes of the solid samples placed under different conditions were tested by XRPD, and the chemical stability was evaluated by HPLC.

A short description of data set [3]: Suspension competition test of crystal forms. It is filed as physicochemical. How it is done: In order to further study the transformation relationship between the free anhydrous crystal form and the hydrate crystal form, a suspension competition test was carried out on the anhydrous crystal form B/G and the hydrate crystal form A. Firstly, the suspension competition test between […] B and G was set up at 5° C., room temperature and 50° C. in ACN and room temperature in EtOAc. The specific steps are as follows: 1) saturated solution of the free state was prepared in different solvent systems at corresponding temperatures; 2) the corresponding free crystal form sample was added into 0.5 mL of the saturated solution to form a suspension; 3) the mixture was magnetically stirred under corresponding temperature conditions; 4) after stirring for 1 to 5 days, the solid was separated for XRPD testing.
Therefore, a suspension competition test of stable anhydrous crystal form B at room temperature and hydrate form A with different water activities (aw=0/0.2/0.4/0.6/0.8/1.0) of ACN/H2O at room temperature was set up. […] Reference source not found.

Setting [4] is: 25° C./60% RH/exposure, one week.
Setting [5] is: 40° C./75% RH/exposure, one week.
The mark [6] stands for this setting: statement in words, all test conditions.

SMILES strings stand for the structures.

T1 sequence (Q9Y5Y9 whole entry): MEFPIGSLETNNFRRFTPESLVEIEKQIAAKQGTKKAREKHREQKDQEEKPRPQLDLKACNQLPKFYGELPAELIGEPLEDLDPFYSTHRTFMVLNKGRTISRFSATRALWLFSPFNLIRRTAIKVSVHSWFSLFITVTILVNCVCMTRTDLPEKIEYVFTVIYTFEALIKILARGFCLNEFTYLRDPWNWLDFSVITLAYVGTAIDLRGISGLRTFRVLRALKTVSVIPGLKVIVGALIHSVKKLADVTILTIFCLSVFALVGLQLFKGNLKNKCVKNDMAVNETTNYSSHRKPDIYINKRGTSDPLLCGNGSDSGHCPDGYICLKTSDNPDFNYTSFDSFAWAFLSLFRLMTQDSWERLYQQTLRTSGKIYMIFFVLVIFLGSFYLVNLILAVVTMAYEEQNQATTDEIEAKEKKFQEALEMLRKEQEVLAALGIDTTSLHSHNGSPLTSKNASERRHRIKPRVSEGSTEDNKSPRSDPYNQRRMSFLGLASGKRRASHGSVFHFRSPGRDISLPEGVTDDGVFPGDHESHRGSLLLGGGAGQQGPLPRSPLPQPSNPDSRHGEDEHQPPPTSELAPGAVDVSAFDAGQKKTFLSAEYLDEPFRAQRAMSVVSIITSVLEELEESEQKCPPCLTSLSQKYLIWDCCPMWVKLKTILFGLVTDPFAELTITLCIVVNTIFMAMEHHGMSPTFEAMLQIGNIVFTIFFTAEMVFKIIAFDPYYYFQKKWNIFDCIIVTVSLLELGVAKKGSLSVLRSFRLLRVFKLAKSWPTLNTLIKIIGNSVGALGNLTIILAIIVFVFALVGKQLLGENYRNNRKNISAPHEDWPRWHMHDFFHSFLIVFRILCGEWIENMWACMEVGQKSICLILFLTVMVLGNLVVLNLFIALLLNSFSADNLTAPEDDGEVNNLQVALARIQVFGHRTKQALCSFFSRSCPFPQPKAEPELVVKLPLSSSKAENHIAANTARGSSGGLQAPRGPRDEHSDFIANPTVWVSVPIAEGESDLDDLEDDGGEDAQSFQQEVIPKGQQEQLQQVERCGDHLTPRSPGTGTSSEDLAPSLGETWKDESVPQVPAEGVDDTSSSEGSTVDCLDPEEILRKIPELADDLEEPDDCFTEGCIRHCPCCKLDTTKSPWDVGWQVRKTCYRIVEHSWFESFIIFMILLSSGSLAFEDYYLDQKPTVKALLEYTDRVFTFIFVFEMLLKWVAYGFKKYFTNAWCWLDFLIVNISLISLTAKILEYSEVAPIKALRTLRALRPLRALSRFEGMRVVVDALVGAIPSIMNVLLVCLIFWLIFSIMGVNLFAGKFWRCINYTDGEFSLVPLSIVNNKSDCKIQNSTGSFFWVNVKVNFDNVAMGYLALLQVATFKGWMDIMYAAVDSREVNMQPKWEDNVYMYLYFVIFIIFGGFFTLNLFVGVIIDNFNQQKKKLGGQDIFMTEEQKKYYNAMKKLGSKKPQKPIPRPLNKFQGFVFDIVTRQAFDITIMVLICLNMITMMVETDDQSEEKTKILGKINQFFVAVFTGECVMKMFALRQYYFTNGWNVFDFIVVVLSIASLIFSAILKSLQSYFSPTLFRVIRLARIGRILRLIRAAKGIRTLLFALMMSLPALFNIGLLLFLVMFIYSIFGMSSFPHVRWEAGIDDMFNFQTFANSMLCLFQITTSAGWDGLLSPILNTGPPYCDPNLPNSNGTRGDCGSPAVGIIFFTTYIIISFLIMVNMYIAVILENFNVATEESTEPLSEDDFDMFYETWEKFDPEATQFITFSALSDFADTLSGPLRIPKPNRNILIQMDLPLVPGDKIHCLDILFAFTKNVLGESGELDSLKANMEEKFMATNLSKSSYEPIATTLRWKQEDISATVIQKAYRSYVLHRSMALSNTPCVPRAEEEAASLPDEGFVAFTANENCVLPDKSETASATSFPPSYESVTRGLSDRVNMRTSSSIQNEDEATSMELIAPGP

Take `O=C(Nc1ccc[n+]([O-])c1)c1cc(Cl)c(Cl)cc1Oc1ccc(OC(F)(F)F)cc1` [Compound of formula (I)]: the “blocking effect on NaV1.8 channel activity” value on NaV1.8 is recorded as “obvious blocking effect”. The compound also registered a F in data set [1] (rat, intragastric 10 mg/kg) of 72.59%. For the same compound, the “pharmacokinetic absorption in rats” value in data set [1] (statement in words) is on record as “good pharmacokinetic absorption”.

As for `O=C(Nc1ccc[n+]([O-])c1)c1cc(Cl)c(Cl)cc1Oc1ccc(OC(F)(F)F)cc1` [Free crystal form B], in data set [2] (setting [4]), the Purity worked out at 99.90 area %, the “Relative to initial purity” value amounted to 99.99% and the Crystal form variation result is on record as “Constant”. In data set [2] (setting [5]), the Purity was determined as 99.90 area %, the “Relative to initial purity” value came to 99.99% and the Crystal form variation result is given as “Constant”. Moreover, in data set [2] (60° C./closed, 24 hours), the Purity turned out to be 99.91 area %, the “Relative to initial purity” value is on record as 100.00% and the Crystal form variation entry was “Constant”. The same compound came in with a Purity in data set [2] (Start) of 99.91 area %. In data set [2] (setting [6]), the “HPLC purity under the test conditions” value is reported as “not decreased obviously” and the “crystal form change under the test conditions” value is reported as “not changed”. In data set [3] (conclusion in words), the “stability and druggability compared with hydrate crystal form” value was “better stability”.

`O=C(Nc1ccc[n+]([O-])c1)c1cc(Cl)c(Cl)cc1Oc1ccc(OC(F)(F)F)cc1` [Crystal form A/B]: the “crystal form obtained in suspension competition” value in data set [3] (ACN/H2O, room temperature, aw=0 to 0.4) is reported as “anhydrous crystal form B was obtained”; in data set [3] (ACN/H2O, room temperature, aw=0.6 to 1 (pure water)) it was “hydrate crystal form A was obtained”. Further, the “Competition test result (crystal form obtained)” value is listed as “Free crystal form B” in data set [3] (test 22-A1, ACN (aw to 0), room temperature); “Free crystal form B” in data set [3] (test 22-A2, ACN/H2O (981:19, aw to 0.2), room temperature); “Free crystal form B” in data set [3] (test 22-A3, ACN/H2O (957:43, aw to 0.4), room temperature); “Free crystal form B” in data set [3] (test 22-A4, ACN/H2O (924:76, aw to 0.6), room temperature); “Free crystal form B” in data set [3] (test 22-A5, ACN/H2O (87:13, aw to 0.8), room temperature); “Free crystal form B” in data set [3] (test 22-A6, H2O (aw to 1.0), room temperature).

Regarding `O=C(Nc1ccc[n+]([O-])c1)c1cc(Cl)c(Cl)cc1Oc1ccc(OC(F)(F)F)cc1` [Crystal form B/G], the “crystal form obtained in suspension competition” value in data set [3] (ACN at 5° C., room temperature, 50° C. and EtOAc at room temperature) is listed as “only the free crystal form B was obtained”. Besides, the “Competition test result (crystal form obtained)” value in data set [3] (test 22-B1, ACN (aw to 0), 5° C.) is given as “Free crystal form B”; in data set [3] (test 22-B2, ACN (aw to 0), room temperature) it was “Free crystal form B”; in data set [3] (test 22-B3, ACN (aw to 0), 50° C.), “Free crystal form B”; in data set [3] (test 22-B4, EtOAc (aw to 0), room temperature), “Free crystal form B”.

These data come from patent publication US20240208908A1, “CRYSTAL FORM OF PYRIDINE NITROGEN OXIDE COMPOUND AND USE THEREOF” (SHANGHAI JEMINCARE PHARMACEUTICAL CO., LTD, priority 2021, published 2024).
